Reference: US5189038A, “Method of stimulating superoxide generation” (G. D. Searle and Co., priority 1991, dated 1993)
pIC50: −log10 of the molar value. Several values for one entry are separate records, joined by “and”; a condition that tells them apart may be missing. Identical values can stand only once. Counter-ions that a name gives are not always drawn.

What was measured:
[1] = test system: FMLP-stimulated human neutrophils (superoxide generation); test: Human neutrophil superoxide generation (FMLP-stimulated, cytochrome C reduction); format: cell-based; conditions: for activation at 5 µM / activation at 10 µM: read-out: Stimulation of FMLP Induced Superoxide, above control; for Stimulation of FMLP Induced Superoxide: concentrations at which compound stimulates: "Stimulates at" concentration range
Method: The compounds of the invention are evaluated with respect to superoxide modulating activity according to the following assay procedure:
Human neutrophil superoxide generation: Superoxide generation by formyl-methionyl-leucyl-phenylalanine (FMLP)-stimulated neutrophils was quantitated by the reduction of cytochrome C (Badwey, J. A., Curnutte, J. T. and Karnovsky, M. L., cis-Polyunsaturated fatty acids induce high levels of superoxide production by human neutrophils. J. Biol. Chem. 256: 12640-12643, 1981.) To 5 million neutrophils in 2.85 ml of KrebsRinger phosphate buffer, pH 7.2, 50 ul of inhibitor (in 10% DMSO/buffer), and 50 ul ferricytochrome C (5 mM, stock) were added and preincubated for 3 minutes at 37° C. Absorption measurements at 550 nm were recorded at start of preincubation. Fifty ul FMLP (6 uM, stock) was added to initiate reaction. A plateau was reached within 3 minutes and this reading--initial reading (before addition of FMLP) was used to calculate nanomoles of superoxide generated based on a molar extinction coefficient of 2.1×10^4 cm^-1 mole^-1.
Isolation of human neutrophils: Human neutrophils were isolated from freshly drawn blood of healthy donors. Two ml of 5% dextran (MW 200,000-300,000) in saline was added to 10 ml aliquots of blood, mixed and placed upright for 45 min. at 37° C. Approx. 8-10 ml of the plasma-white cell suspension from the dextran sedimentation was layered on 3 ml of Ficol-paque in a 15 ml tube and centrifuged at 400 g for 30 min. The supernate, containing plasma and platelets, was discarded by aspiration, and the pellet, containing predominantly neutrophils, was resuspended in 1 ml saline. The suspension was transferred to a clean tube, and pooled with other aliquots of blood treated similarly. The pooled suspension was centrifuged at 350 g for 5 min. and supernate discarded. The pellet was resuspended in 5 ml of 0.05% NaCl with a plastic Pasteur pipette for 25 seconds to lyse contaminating red cells, then 5 ml of 1.75% NaCl added to regain isotonicity. The red cell lysing procedure was repeated, the cells suspended in appropriate buffer (depending on assay) and counted.
For comparison the compound of Formula IV, a known 5-lipoxygenase inhibitor described in U.S. Pat. No. 4,755,524 was used. [drawing 20] (±)[2S*-[[3.5-bis(1,1-dimethylethyl)-4-hydroxyphenyl]thio]-1R*-methylpro poxy]acetic acid

5-lipoxygenase = target: T1, 5-lipoxygenase (Rattus norvegicus, UniProt P12527); test: Inhibition of 5-lipoxygenase, in vitro (5-HETE synthesis by RBL-1 100,000×g supernatant); format: biochemical; conditions: for pIC50: RBL-1 homogenate supernatant, 5-HETE synthesis
T1 construct: supernatant fraction of Rat Basophilic Leukemia Cell Homogenate (RBL-1) serves as a 5-lipoxygenase enzyme source; endogenous in cells; host or cells: RBL-1 (rat basophilic leukemia) cells, 100,000×g supernatant of homogenate
T1 sequence (P12527 1-673): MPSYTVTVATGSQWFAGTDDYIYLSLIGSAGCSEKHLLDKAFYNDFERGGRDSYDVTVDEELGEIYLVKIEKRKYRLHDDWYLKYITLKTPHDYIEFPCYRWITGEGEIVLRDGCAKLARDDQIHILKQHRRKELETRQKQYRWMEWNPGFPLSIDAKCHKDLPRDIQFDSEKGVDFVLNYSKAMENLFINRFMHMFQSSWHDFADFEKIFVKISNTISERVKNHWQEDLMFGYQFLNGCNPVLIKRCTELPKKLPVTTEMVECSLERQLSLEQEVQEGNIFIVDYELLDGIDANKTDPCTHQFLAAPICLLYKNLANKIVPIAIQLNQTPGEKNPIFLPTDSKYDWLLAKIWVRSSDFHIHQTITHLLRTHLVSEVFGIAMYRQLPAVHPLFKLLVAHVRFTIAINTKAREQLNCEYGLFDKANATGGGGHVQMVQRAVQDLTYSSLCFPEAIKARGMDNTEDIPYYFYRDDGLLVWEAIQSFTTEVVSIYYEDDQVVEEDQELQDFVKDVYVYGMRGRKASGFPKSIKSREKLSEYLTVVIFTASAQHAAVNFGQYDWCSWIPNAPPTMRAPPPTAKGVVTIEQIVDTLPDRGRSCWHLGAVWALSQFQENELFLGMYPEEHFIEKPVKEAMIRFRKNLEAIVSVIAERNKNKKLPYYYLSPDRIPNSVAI
Method: The compounds of the invention are evaluated with respect to 5-lipoxygenaseinhibition according to the following assay procedure.
Inhibition of 5-lipoxygenase, in vitro:
anti-inflammatory, anti-allergy activities.
The 100,000×g supernatant fraction of Rat Basophilic Leukemia Cell Homogenate (RBL-1) serves as a 5-lipoxygenase enzyme source. The enzyme is incubated with [1-^14 C)-arachidonic acid and Ca++ in the presence and absence of test compound. The product of 5-lipoxygenase, 5-hydroxyeicosatetraenoic acid (5-HETE), is separated by thin-layer chromatography and measured by radioactivity. A compound inhibiting 5-HETE synthesis by 30% or more is considered active at that concentration.

Compound | activation at 5 µM ([1]; Homo sapiens, Neutrophil) | activation at 10 µM ([1]; Homo sapiens, Neutrophil) | pIC50 (5-lipoxygenase) | Stimulation of FMLP Induced Superoxide: concentrations at which compound stimulates [1] | also measured
CN(CCc1ccccn1)C(=O)CCSc1cc(C(C)(C)C)c(O)c(C(C)(C)C)c1 [Example 5, 3-[[3,5-bis(1,1-dimethylethyl)-4-hydroxyphenyl]thio]-N-methyl-N-[2-(2-pyridinyl)ethyl]propanamide monohydrochloride] | 50% | 227% |  |  | 
CC(C)C(C)(O)CCSc1cc(C(C)(C)C)c(O)c(C(C)(C)C)c1 (centres unmarked) [Example 10, 2,6-bis(1,1-dimethylethyl)-4-[(3-hydroxy-3,4-dimethylpentyl)thio]phenol] |  |  | 6.10 | 5 to 50 µM | 
CC(C)(C)c1cc(SCCC(=O)N2CCN(Cc3ccccc3)CC2)cc(C(C)(C)C)c1O [Example 8, 1-[3-[[3,5-Bis(1,1-dimethylethyl)4-hydroxyphenyl]thio]-1-oxopropyl]-4-(phenylmethyl)piperazine] | 150% | 206% | 6.80 |  | 
CC(C)C(O)CCSc1cc(C(C)(C)C)c(O)c(C(C)(C)C)c1 (centres unmarked) [Example 9, 2,6-bis(1,1-dimethylethyl)-4-[(3-hydroxy-4-methylpentyl)thio]phenol] |  |  | 6.59 | 5 to 50 µM | 
C[C@H](Sc1cc(C(C)(C)C)c(O)c(C(C)(C)C)c1)[C@@H](C)OCC(=O)O (relative stereo) [Formula IV, (±)[2S*-[[3.5-bis(1,1-dimethylethyl)-4-hydroxyphenyl]thio]-1R*-methylpropoxy]acetic acid, reference compound] |  |  |  |  | Effect on 5-lipoxygenase (in words) (5-lipoxygenase): inhibited both superoxide generation and 5-lipoxygenase; pIC50 ([1]; Homo sapiens, Neutrophil, inhibition of FMLP induced superoxide, read-out: Inhibited superoxide generation, IC50): 4.96; Effect on superoxide generation (in words) ([1]; neutrophils): inhibited both superoxide generation and 5-lipoxygenase
Cc1cccc(C)c1NC(=O)CCSc1cc(C(C)(C)C)c(O)c(C(C)(C)C)c1 [Example 7, 3-[[3,5-bis(1,1-dimethylethyl)-4-hydroxyphenyl]thio]-N-(2,6-dimethylphenyl)propanamide] |  |  | 6.64 and 6.48 | 3 to 20 µM | 
